Test results reported in patent US6531496B1 (Bayer Aktiengesellschaft, priority 1999, dated 2003).
≈ marks a conversion by molar mass, not a printed value.

Assays:
Plasmopara viticola = experiment: Plasmopara test (grapevine)/protective; assay type: in vivo; details: 144 h, protective, evaluated 6 days after inoculation, read-out: Efficacy in %
Description: Plasmopara Test (Grapevine)/Protective Solvent: 47 parts by weight of acetone Emulsifier: 3 parts by weight of alkylaryl polyglycol ether To prepare a suitable active compound preparation, 1 part by weight of active compound is mixed with the stated amounts of solvent and emulsifier, and the concentrate is diluted with water to the desired concentration. To test for protective activity, young plants are sprayed with the active compound preparation at the application rate stated. After the spray coating has dried on, the plants are inoculated with an aqueous spore suspension of Plasmopara viticola and then remain for 1 day in an incubation cabinet at approx. 20° C. and a relative atmospheric humidity of 100%. […] The plants are then moistened and placed in an incubation cabinet for 1 day.

Penicillium brevicaule = experiment: Minimum inhibitory concentration on malt extract agar; assay type: cell-based; details: 2 weeks at 28° C.; for MIC: Penicillium, 336 h, read-out: Minimum inhibitory concentrations Penicillium brevicaule
Description: (§1) To confirm the activity against fungi (Penicillium brevicaule, Chaetomium globosum, Aspergillus Niger), the minimum inhibitory concentrations (MICs) of agents according to the invention are determined:
(§2) Active compounds according to the invention are added in concentrations of from 0.1 mg/l to 5 000 mg/l to an agar prepared using malt extract. […] The MIC is the lowest concentration of active compound at which no growth whatsoever by the microbial species used occurs; it is indicated in the table which follows.

Venturia inaequalis = experiment: Venturia test (apple)/protective; assay type: in vivo; details: 288 h, protective, evaluated 12 days after inoculation, read-out: Efficacy in %
Description: Venturia Test (Apple)/Protective Solvent: 47 parts by weight of acetone Emulsifier: 3 parts by weight of alkylaryl polyglycol ether To prepare a suitable active compound preparation, 1 part by weight of active compound is mixed with the stated amounts of solvent and emulsifier, and the concentrate is diluted with water to the desired concentration. To test for protective activity, young plants are sprayed with the active compound preparation at the application rate stated. After the spray coating has dried on, the plants are inoculated with an aqueous conidial suspension of the apple scab pathogen Venturia inaequalis and then remain for 1 day in an incubation cabinet at approx. 20° C. and 100% relative atmospheric humidity.

Chaetomium globosum = experiment: Minimum inhibitory concentration on malt extract agar; assay type: cell-based; details: 2 weeks at 28° C.
Description: as §1, §2

Aspergillus Niger = experiment: as above; assay type: cell-based; details: 2 weeks at 28° C.
Description: as §1, §2

Plutella = Plutella test/synthetic feed; assay type: in vivo; details: active compound concentration 0.1%, after 7 days
Description: Plutella Test/Synthetic Feed Solvent: 100 parts by weight of acetone […] 1900 parts by weight of methanol To prepare a suitable active compound preparation, 1 part by weight of active compound is mixed with the stated amount of solvent and the concentrate is diluted with methanol to the desired concentration. A stated amount of active compound preparation of the desired concentration is pipetted onto a standardized amount of synthetic feed. After the methanol has evaporated, the lid of a film box, populated with approx. 100 Plutella eggs, is placed over each cavity. The freshly hatched larvae crawl onto the treated synthetic feed. After the desired time, the destruction is determined in %. 100% means that all the animals have been killed; 0% means that none of the animals have been killed.

[1] = logP by HPLC (EEC Directive 79/831 Annex V. A8, gradient method); assay type: physicochemical
[2] = tested on: greenhouse red spider mite (Tetranychus urticae); experiment: Tetranychus test (OP-resistant/immersion treatment); assay type: in vivo; details: active compound concentration 0.01%
Description: Tetranychus Test (OP-resistant/Immersion Treatment)
Solvent: 3 parts by weight of dimethylformamide
Emulsifier: 1 part by weight of alkylaryl polyglycol ether
To prepare a suitable active compound preparation, 1 part by weight of active compound is mixed with the stated amount of solvent and the stated amount of emulsifier, and the concentrate is diluted with water to the desired concentrations.
Bean plants (Phaseolus vulgaris) which are severely infested by all stages of the greenhouse red spider mite (Tetranychus urticae) are immersed into an active compound preparation of the desired concentration.
After the desired time, the efficacy is determined in %. 100% means that all the spider mites have been killed; 0% means that none of the spider mites have been killed.

[3] = tested on: green peach aphid (Myzus persicae); experiment: Myzus test; assay type: in vivo; details: active compound concentration 0.01%
Description: Solvent: 6 parts by weight of dimethylformamide
67 parts by weight of methanol
Emulsifier: 2 parts by weight of alkylaryl polyglcol ether
To prepare a suitable active compound preparation, 1 part by weight of active compound is mixed with the stated amount of solvent and the stated amount of emulsifier, and the concentrate is diluted with emulsifier-containing water to the desired concentrations.
Field bean (Vicia faba) seedlings which are infested with the green peach aphid (Myzus persicae) are immersed into an active compound preparation of the desired concentration and placed into a plastic box.
After the desired period of time, the destruction is determined in %. 100% means that all the animals have been killed; 0% means that none of the animals have been killed.

[4] = gradient of acetonitrile/0.1% aqueous phosphoric acid, HPLC, gradient method, acetonitrile/0.1% aqueous phosphoric acid, Table 1

Structure (SMILES)	pest or weed control at 250 g/ha (Plasmopara viticola)	pest or weed control at 250 g/ha (Venturia inaequalis)	chromatographic logP [1, 4]	also measured
Cc1cc(Cl)cc(OC2=NS(=O)(=O)CS2)c1 [Example 1, 3-(3-chloro-5-methylphenoxy)-1λ^6,4,2-dithiazole-1,1(5H)-dione]	≥ 90%	≥ 90%	–	MIC (Penicillium brevicaule): 10 to 100 µg/mL (≈ 36 to 360 µM)
O=S1(=O)CSC(Oc2ccccc2)=N1 [Example 1]	–	–	–	MIC (Chaetomium globosum; Chaetomium globosum, 336 h, read-out: Minimum inhibitory concentrations Chaetomium globosum): 100 µg/mL (≈ 436 µM); MIC (Penicillium brevicaule): 100 µg/mL (≈ 436 µM); MIC (Aspergillus Niger; Aspergillus niger, 336 h, read-out: Minimum inhibitory concentrations Aspergillus Niger): 100 µg/mL (≈ 436 µM)
Nc1ccc(OC2=NS(=O)(=O)CS2)c(Cl)c1Cl [Example 14]	≥ 90%	–	–	Destruction in % after 7^d (Plutella): 95%
CO/N=C(/C)c1ccc(OC2=NS(=O)(=O)CS2)cc1 [Example 20]	–	–	2.62	Destruction in % after 7^h ([2]; after 7^h): 95%; destruction after 7 days ([2]; after 7 days): 95%
C/C(=N/OCc1ccccc1)c1ccc(OC2=NS(=O)(=O)CS2)cc1 [Example 22]	–	–	3.67	Destruction in % after 6^d [3]: 100%
C/C(=N/OC(C)(C)C)c1ccc(OC2=NS(=O)(=O)CS2)cc1 [Example 24]	–	≥ 90%	3.98	–
O=C(c1ccccc1)c1cccc(OC2=NS(=O)(=O)CS2)c1 [Example 27]	≥ 90%	≥ 90%	2.66	–
C/C(=N/OC(C)(C)C)c1cccc(OC2=NS(=O)(=O)CS2)c1 [Example 28]	≥ 90%	≥ 90%	3.94	–
CC(=O)c1cccc(OC2=NS(=O)(=O)CS2)c1 [Example 40]	≥ 90%	≥ 90%	1.73	Destruction in % after 6^d [3]: 90%
Cc1cc(Cl)cc(OC2=NS(=O)(=O)CS2)c1 [Example 92]	–	–	–	Minimum inhibitory concentrations Chaetomium globosum (Chaetomium globosum): 100 ppm; Minimum inhibitory concentrations Penicillium brevicaule (Penicillium brevicaule): 20 ppm; Minimum inhibitory concentrations Aspergillus Niger (Aspergillus Niger): 100 ppm
O=S1(=O)CSC(Oc2ccc(Cl)cc2)=N1 [Example 93]	–	–	–	Minimum inhibitory concentrations Chaetomium globosum (Chaetomium globosum): 50 ppm; Minimum inhibitory concentrations Penicillium brevicaule (Penicillium brevicaule): 20 ppm; MIC (Penicillium brevicaule): 10 to 100 µg/mL (≈ 37.9 to 379 µM); Minimum inhibitory concentrations Aspergillus Niger (Aspergillus Niger): 100 ppm
O=S1(=O)CSC(Oc2cccc(Cl)c2)=N1 [Example 94]	–	≥ 90%	–	Minimum inhibitory concentrations Chaetomium globosum (Chaetomium globosum): 100 ppm; Minimum inhibitory concentrations Penicillium brevicaule (Penicillium brevicaule): 20 ppm; MIC (Penicillium brevicaule): 10 to 100 µg/mL (≈ 37.9 to 379 µM); Minimum inhibitory concentrations Aspergillus Niger (Aspergillus Niger): 100 ppm
O=S1(=O)CSC(Oc2ccccc2Cl)=N1 [Example 95]	≥ 90%	≥ 90%	–	–
O=S1(=O)CSC(Oc2ccc(Cl)cc2Cl)=N1 [Example 96]	≥ 90%	≥ 90%	–	–
O=S1(=O)CSC(Oc2ccc(Cl)c(Cl)c2)=N1 [Example 100]	≥ 90%	≥ 90%	–	Minimum inhibitory concentrations Chaetomium globosum (Chaetomium globosum): 50 ppm; Minimum inhibitory concentrations Penicillium brevicaule (Penicillium brevicaule): 20 ppm; MIC (Penicillium brevicaule): 10 to 100 µg/mL (≈ 33.5 to 335 µM); Minimum inhibitory concentrations Aspergillus Niger (Aspergillus Niger): 100 ppm
O=S1(=O)CSC(Oc2cccc(Cl)c2Cl)=N1 [Example 101]	≥ 90%	≥ 90%	–	–
Cc1ccc(OC2=NS(=O)(=O)CS2)cc1 [Example 105]	≥ 90%	≥ 90%	–	–
Cc1cccc(OC2=NS(=O)(=O)CS2)c1 [Example 106]	≥ 90%	≥ 90%	–	–
O=S1(=O)CSC(Oc2ccccc2Br)=N1 [Example 108]	–	≥ 90%	2.3	–
O=S1(=O)CSC(Oc2ccccc2F)=N1 [Example 110]	–	≥ 90%	2.02	–
O=S1(=O)CSC(Oc2cccc(F)c2)=N1 [Example 111]	–	≥ 90%	2.05	–
CC(C)(C)c1cccc(OC2=NS(=O)(=O)CS2)c1 [Example 114]	–	≥ 90%	3.27	–
Cc1ccc(Cl)c(OC2=NS(=O)(=O)CS2)c1 [Example 115]	–	≥ 90%	2.62	–
O=S1(=O)CSC(Oc2ccccc2OC(F)(F)F)=N1 [Example 133]	–	≥ 90%	2.63	–
O=S1(=O)CSC(Oc2ccc3oc(=S)sc3c2)=N1 [Example 141]	≥ 90%	≥ 90%	–	chromatographic logP ([1]; Table 2): 2.64
